Experimental data as given in patent US10444230B2, “Method and system for determination of molecular interaction parameters” (GE Healthcare Bio-Sciences AB, priority 2003, dated 2019).

Legend:
[1] = target: T1, Carbonic anhydrase (Sigma C3640) (Bos taurus, UniProt P00921); assay: SPR (BIACORE S51) sequential injection kinetics, inhibitors binding to immobilized carbonic anhydrase
T1 construct: purchased Sigma C3640
Protocol: Kinetic analysis was performed by injecting inhibitors in 10 mM PBS buffer with 0.005% P20 and 5% DMSO at a flow of 30 μl/min.

Thrombin (Sigma T 1063) = Thrombin (Sigma T 1063) (Homo sapiens, UniProt P00734); conditions: ligand densities approx. 2300 and 600 RU; 10 mM PBS, 0.005% P20, 5% DMSO, 3.4 mM EDTA

T1 sequence (P00921 whole entry): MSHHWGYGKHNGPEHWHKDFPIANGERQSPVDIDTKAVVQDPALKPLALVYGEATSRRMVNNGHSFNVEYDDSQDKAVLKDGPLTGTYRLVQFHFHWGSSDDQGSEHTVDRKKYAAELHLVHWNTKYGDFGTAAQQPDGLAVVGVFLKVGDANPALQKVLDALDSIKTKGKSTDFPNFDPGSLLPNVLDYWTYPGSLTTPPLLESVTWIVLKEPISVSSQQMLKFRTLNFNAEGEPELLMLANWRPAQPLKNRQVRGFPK

SMILES	kon ([1]; read-out: ka) [M⁻¹ s⁻¹]	kd ([1]; two ligand densities, approx. 2000 and 700 RU, 10 mM PBS, 0.005% P20, 5% DMSO) [s⁻¹]	ka (Thrombin (Sigma T 1063)) [M⁻¹ s⁻¹]	kd (Thrombin (Sigma T 1063)) [s⁻¹]
NS(=O)(=O)c1ccccc1 [benzenesulfonamide]	160000	0.14	–	–
N=C(N)c1ccc(CNC(=O)[C@@H]2CCN2C(=O)[C@H](NCC(=O)O)C2CCCCC2)cc1 [melagatran]	–	–	2e+07	0.018
